ChEMBL document CHEMBL1201862, “PubChem BioAssay data set” (2004)
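96-well plates; 48 h exposure; 5 concentrations. Endpoints by linear interpolation between flanking doses. Not reached: highest tested concentration assigned. Abbreviation: GI50, concentration required for 50% inhibition of growth.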 Calls of active or inactive are those of the source. No stated cut-off is given here; in the data, active = GI50 up to about 1.1 µM and inactive = higher.

What was measured:
Assay in all cases: NCI tumour cell line growth inhibition, 48 h
786-0 = test system: 786-0
A498 = test system: A498
A549 = test system: A549
ACHN = test system: ACHN
BT-549 = test system: BT-549
CAKI-1 = test system: CAKI-1
CCRF-CEM = test system: CCRF-CEM
COLO 205 = test system: COLO 205
DU-145 = test system: DU-145
EKVX = test system: EKVX
HCT-116 = test system: HCT-116
HCT-15 = test system: HCT-15
HL-60 = test system: HL-60
HOP-62 = test system: HOP-62
HOP-92 = test system: HOP-92
HT-29 = test system: HT-29
Hs-578T = test system: Hs-578T
IGROV-1 = test system: IGROV-1
KM12 = test system: KM12
LOX IMVI = test system: LOX IMVI
M14 = test system: M14
MCF7 = test system: MCF7
MDA-MB-231 = test system: MDA-MB-231
MDA-MB-435 = test system: MDA-MB-435
MDA-N = test system: MDA-N
MOLT-4 = test system: MOLT-4
Malme-3M = test system: Malme-3M
NCI-H226 = test system: NCI-H226
NCI-H23 = test system: NCI-H23
NCI-H460 = test system: NCI-H460
NCI-H522 = test system: NCI-H522
NCI/ADR-RES = test system: NCI/ADR-RES
OVCAR-3 = test system: OVCAR-3
OVCAR-4 = test system: OVCAR-4
OVCAR-5 = test system: OVCAR-5
OVCAR-8 = test system: OVCAR-8
PC-3 = test system: PC-3
RPMI-8226 = test system: RPMI-8226
RXF 393 = test system: RXF 393
SF-268 = test system: SF-268
SF-295 = test system: SF-295
SF-539 = test system: SF-539
SK-MEL-28 = test system: SK-MEL-28
SK-MEL-2 = test system: SK-MEL-2
SK-MEL-5 = test system: SK-MEL-5
SK-OV-3 = test system: SK-OV-3
SN12C = test system: SN12C
SNB-19 = test system: SNB-19
SNB-75 = test system: SNB-75
SR = test system: SR
SW-620 = test system: SW-620
TK-10 = test system: TK-10
U-251 = test system: U-251
UACC-257 = test system: UACC-257
UACC-62 = test system: UACC-62
UO-31 = test system: UO-31
HCC 2998 = test system: HCC 2998

Question: NCCSC(c1ccccc1)c1ccccc1 was tested. Which GI50 (786-0) did it give?
Answer: 17.5 µM (inactive)

Question: What about the GI50 (A498) of the same compound?
Answer: 22.4 µM (inactive)

Question: What about the GI50 (A549) of the same compound?
Answer: 39.3 µM (inactive)

Question: And the GI50 (ACHN)?
Answer: 31.8 µM (inactive)

Question: What about the GI50 (BT-549) of the same compound?
Answer: 43.8 µM (inactive)

Question: And the GI50 (CAKI-1)?
Answer: 24.9 µM (inactive)

Question: And the GI50 (CCRF-CEM)?
Answer: 32.6 µM (inactive)

Question: And the GI50 (COLO 205)?
Answer: 23.7 µM (inactive)

Question: What about the GI50 (DU-145) of the same compound?
Answer: 29.2 µM (inactive)

Question: And the GI50 (EKVX)?
Answer: 30.7 µM (inactive)

Question: And the GI50 (HCT-116)?
Answer: 16.7 µM (inactive)

Question: What about the GI50 (HCT-15) of the same compound?
Answer: 33.2 µM

Question: What about the GI50 (HL-60) of the same compound?
Answer: 0.314 µM (active)

Question: And the GI50 (HOP-62)?
Answer: 17.5 µM (inactive)

Question: What about the GI50 (HOP-92) of the same compound?
Answer: 10.6 µM (inactive)

Question: What about the GI50 (HT-29) of the same compound?
Answer: 17.7 µM (inactive)

Question: And the GI50 (Hs-578T)?
Answer: 24.2 µM (inactive)

Question: And the GI50 (IGROV-1)?
Answer: 13.1 µM (inactive)

Question: And the GI50 (KM12)?
Answer: 19.7 µM (inactive)

Question: What about the GI50 (LOX IMVI) of the same compound?
Answer: 16.3 µM (inactive)

Question: What about the GI50 (M14) of the same compound?
Answer: 14.7 µM (inactive)

Question: And the GI50 (MCF7)?
Answer: 19.3 µM (inactive)

Question: What about the GI50 (MDA-MB-231) of the same compound?
Answer: 18.6 µM (inactive)

Question: And the GI50 (MDA-MB-435)?
Answer: 19.1 µM (inactive)

Question: And the GI50 (MDA-N)?
Answer: 18.7 µM (inactive)

Question: What about the GI50 (MOLT-4) of the same compound?
Answer: 15.7 µM (inactive)

Question: What about the GI50 (Malme-3M) of the same compound?
Answer: 19.5 µM (inactive)

Question: And the GI50 (NCI-H226)?
Answer: 31.2 µM (inactive)

Question: And the GI50 (NCI-H23)?
Answer: 37.2 µM (inactive)

Question: And the GI50 (NCI-H460)?
Answer: 15.1 µM (inactive)

Question: What about the GI50 (NCI-H522) of the same compound?
Answer: 19.1 µM (inactive)

Question: And the GI50 (NCI/ADR-RES)?
Answer: 31.3 µM (inactive)

Question: And the GI50 (OVCAR-3)?
Answer: 19.1 µM (inactive)

Question: And the GI50 (OVCAR-4)?
Answer: 20.4 µM (inactive)

Question: What about the GI50 (OVCAR-5) of the same compound?
Answer: 17.2 µM (inactive)

Question: And the GI50 (OVCAR-8)?
Answer: 20.6 µM (inactive)

Question: And the GI50 (PC-3)?
Answer: 21.8 µM (inactive)

Question: What about the GI50 (RPMI-8226) of the same compound?
Answer: 16 µM (inactive)

Question: And the GI50 (RXF 393)?
Answer: 17.7 µM (inactive)

Question: What about the GI50 (SF-268) of the same compound?
Answer: 26.6 µM (inactive)

Question: What about the GI50 (SF-295) of the same compound?
Answer: 18.2 µM (inactive)

Question: What about the GI50 (SF-539) of the same compound?
Answer: 20.7 µM (inactive)

Question: And the GI50 (SK-MEL-28)?
Answer: 18.6 µM (inactive)

Question: What about the GI50 (SK-MEL-2) of the same compound?
Answer: 18.4 µM (inactive)

Question: What about the GI50 (SK-MEL-5) of the same compound?
Answer: 16.7 µM (inactive)

Question: And the GI50 (SK-OV-3)?
Answer: 22.5 µM (inactive)

Question: And the GI50 (SN12C)?
Answer: 35.5 µM (inactive)

Question: And the GI50 (SNB-19)?
Answer: 51.9 µM (inactive)

Question: And the GI50 (SNB-75)?
Answer: 24.5 µM (inactive)

Question: What about the GI50 (SR) of the same compound?
Answer: 17.6 µM (inactive)

Question: What about the GI50 (SW-620) of the same compound?
Answer: 18.5 µM (inactive)

Question: And the GI50 (TK-10)?
Answer: 16.9 µM (inactive)

Question: What about the GI50 (U-251) of the same compound?
Answer: 18.2 µM (inactive)

Question: What about the GI50 (UACC-257) of the same compound?
Answer: 16.3 µM (inactive)

Question: And the GI50 (UACC-62)?
Answer: 17 µM (inactive)

Question: And the GI50 (UO-31)?
Answer: 15 µM (inactive)

Question: Which GI50 (786-0) does the source give for COc1cccc(CC2C(=O)N/C(=N\C(C)=O)N2C)c1OC(C)=O (centres undefined) here?
Answer: > 100 µM (inactive)

Question: And the GI50 (A549)?
Answer: > 100 µM (inactive)

Question: And the GI50 (ACHN)?
Answer: > 100 µM (inactive)

Question: What about the GI50 (BT-549) of the same compound?
Answer: > 100 µM (inactive)

Question: What about the GI50 (CAKI-1) of the same compound?
Answer: > 100 µM (inactive)

Question: And the GI50 (CCRF-CEM)?
Answer: > 100 µM (inactive)

Question: What about the GI50 (COLO 205) of the same compound?
Answer: > 100 µM (inactive)

Question: And the GI50 (DU-145)?
Answer: > 100 µM (inactive)

Question: What about the GI50 (EKVX) of the same compound?
Answer: 44 µM (inactive)

Question: And the GI50 (HCC 2998)?
Answer: > 100 µM (inactive)

Question: What about the GI50 (HCT-116) of the same compound?
Answer: > 100 µM (inactive)

Question: What about the GI50 (HCT-15) of the same compound?
Answer: > 100 µM

Question: What about the GI50 (HL-60) of the same compound?
Answer: > 100 µM (inactive)

Question: And the GI50 (HOP-62)?
Answer: > 100 µM (inactive)

Question: And the GI50 (HOP-92)?
Answer: > 100 µM (inactive)

Question: And the GI50 (HT-29)?
Answer: > 100 µM (inactive)

Question: What about the GI50 (Hs-578T) of the same compound?
Answer: > 100 µM (inactive)

Question: And the GI50 (IGROV-1)?
Answer: > 100 µM (inactive)

Question: What about the GI50 (KM12) of the same compound?
Answer: > 100 µM (inactive)

Question: What about the GI50 (LOX IMVI) of the same compound?
Answer: > 100 µM (inactive)

Question: What about the GI50 (M14) of the same compound?
Answer: > 100 µM (inactive)

Question: And the GI50 (MCF7)?
Answer: > 100 µM (inactive)

Question: What about the GI50 (MDA-MB-231) of the same compound?
Answer: > 100 µM (inactive)

Question: What about the GI50 (MDA-MB-435) of the same compound?
Answer: > 100 µM (inactive)

Question: And the GI50 (MDA-N)?
Answer: > 100 µM (inactive)

Question: What about the GI50 (MOLT-4) of the same compound?
Answer: > 100 µM (inactive)

Question: And the GI50 (NCI-H226)?
Answer: > 100 µM (inactive)

Question: And the GI50 (NCI-H23)?
Answer: > 100 µM (inactive)

Question: What about the GI50 (NCI-H460) of the same compound?
Answer: > 100 µM (inactive)

Question: What about the GI50 (NCI-H522) of the same compound?
Answer: > 100 µM (inactive)

Question: What about the GI50 (NCI/ADR-RES) of the same compound?
Answer: > 100 µM (inactive)

Question: And the GI50 (OVCAR-3)?
Answer: > 100 µM (inactive)

Question: And the GI50 (OVCAR-4)?
Answer: > 100 µM (inactive)

Question: And the GI50 (OVCAR-5)?
Answer: > 100 µM (inactive)

Question: What about the GI50 (OVCAR-8) of the same compound?
Answer: > 100 µM (inactive)

Question: And the GI50 (PC-3)?
Answer: > 100 µM (inactive)

Question: And the GI50 (RXF 393)?
Answer: > 100 µM (inactive)

Question: What about the GI50 (SF-268) of the same compound?
Answer: > 100 µM (inactive)

Question: And the GI50 (SF-295)?
Answer: > 100 µM (inactive)

Question: What about the GI50 (SF-539) of the same compound?
Answer: > 100 µM (inactive)

Question: And the GI50 (SK-MEL-28)?
Answer: 39 µM (inactive)

Question: What about the GI50 (SK-MEL-2) of the same compound?
Answer: > 100 µM (inactive)

Question: And the GI50 (SK-MEL-5)?
Answer: > 100 µM (inactive)

Question: What about the GI50 (SK-OV-3) of the same compound?
Answer: > 100 µM (inactive)

Question: And the GI50 (SN12C)?
Answer: > 100 µM (inactive)

Question: What about the GI50 (SNB-19) of the same compound?
Answer: > 100 µM (inactive)

Question: What about the GI50 (SNB-75) of the same compound?
Answer: > 100 µM (inactive)

Question: And the GI50 (SW-620)?
Answer: > 100 µM (inactive)

Question: And the GI50 (TK-10)?
Answer: > 100 µM (inactive)

Question: What about the GI50 (U-251) of the same compound?
Answer: > 100 µM (inactive)

Question: And the GI50 (UACC-257)?
Answer: > 100 µM (inactive)

Question: What about the GI50 (UACC-62) of the same compound?
Answer: > 100 µM (inactive)

Question: And the GI50 (UO-31)?
Answer: > 100 µM (inactive)
